According to patent publication US20160038526A1, “TREATMENT OF PROSTATE CANCER” (THOMAS JEFFERSON UNIVERSITY, priority 2012, published 2016):
Entries after “also recorded” stand apart in the source; their conditions may differ.

Tests used:
[1] = test system: Stat3; experiment: Nuclear Stat3 immunostaining in CWR22Rv1 xenograft tumors; format: in vivo, nude mice; conditions: CWR22Rv1 xenograft tumors of Example 10
Method: Nuclear active Stat5a/b or nuclear active Stat3 were analyzed by immunostaining with an anti-Stat5a/b or anti-Stat3 antibody, respectively, and biotin-streptavidin amplified peroxidase antiperoxidase immunodetection of paraffin-embedded sections of the prostate xenograft tumors of Example 10. Anti-Stat5a/b (mAb) (55 ng/ml) (Santa Cruz Biotechnology) was used as the primary antibody and antigen-antibody complexes were detected by appropriate biotinylated goat secondary antibodies (Biogenex Laboratories) followed by streptavidin-horseradish-peroxidase complex, and 3,3′-diaminobenzidine as chromogen and Mayer hematoxylin as counterstain. Three microscopic views of each tumor (ten tumors per each treatment group) were photographed at 20× magnification. Nuclear Stat5 and Stat3 indexes were determined by counting epithelial cells with nuclear Stat5a/b immunostaining-positive cells per total number of epithelial cells per view. The counts were averaged within the tumors in a given treatment group.

[2] = target: T1, Stat5b (Homo sapiens, UniProt P51692); experiment: Stat5b transcriptional activity, β-casein promoter luciferase reporter gene assay in PC-3 cells; format: cell-based; conditions: 1 hour pretreatment, 10 nM hPrl for 16 hours
T1 construct: expressed in transfected cells; host or cells: PC-3 (human prostate cancer cell line)
T1 sequence (P51692 whole entry, species assumed): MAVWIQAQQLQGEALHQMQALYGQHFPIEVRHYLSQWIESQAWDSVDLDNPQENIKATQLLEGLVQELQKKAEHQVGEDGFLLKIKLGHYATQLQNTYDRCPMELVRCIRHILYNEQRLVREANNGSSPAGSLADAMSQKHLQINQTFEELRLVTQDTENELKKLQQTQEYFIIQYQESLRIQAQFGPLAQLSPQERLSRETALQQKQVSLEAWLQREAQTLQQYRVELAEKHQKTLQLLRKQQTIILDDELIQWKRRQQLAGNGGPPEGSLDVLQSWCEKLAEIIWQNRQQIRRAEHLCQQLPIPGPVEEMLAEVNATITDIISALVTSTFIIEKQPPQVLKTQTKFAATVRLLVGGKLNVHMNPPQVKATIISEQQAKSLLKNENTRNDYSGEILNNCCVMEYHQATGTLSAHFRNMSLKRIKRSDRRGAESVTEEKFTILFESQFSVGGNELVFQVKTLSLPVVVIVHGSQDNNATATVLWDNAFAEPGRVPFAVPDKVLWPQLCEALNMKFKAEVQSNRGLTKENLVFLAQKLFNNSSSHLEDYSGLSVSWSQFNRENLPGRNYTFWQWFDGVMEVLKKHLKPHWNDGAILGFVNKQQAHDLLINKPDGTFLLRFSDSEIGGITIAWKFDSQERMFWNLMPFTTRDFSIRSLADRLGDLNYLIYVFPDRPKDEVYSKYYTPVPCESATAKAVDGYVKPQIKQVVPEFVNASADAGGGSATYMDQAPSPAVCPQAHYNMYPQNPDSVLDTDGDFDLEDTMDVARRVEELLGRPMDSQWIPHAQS
Method: Cells of the human prostate cell line PC-3 were plated into 96-well plate at the density of 2×10^5 per well. After 24 hours of plating, cells were transiently co-transfected using FuGENE6 (Roche) with 0.25 μg of each of pStat5a or pStat5b, pPrlR (prolactin receptor) plasmids, 0.5 μg of pBeta-casein-luc and 0.025 μg of pRL-TK (Renilla luciferase) plasmids as an internal control. After another 24 hours of transfection, the cells were starved in serum-free medium for 8 hours, pretreated with N^6-benzyladenosine-5′-monophosphate (“N6BAP”), or one of five control compounds (designated “C3” through “C7”) of similar molecular weight but unrelated chemical structure to N6BAP), for 1 hour, and then stimulated with 10 nM human prolactin (hPrl) in the serum-free medium for additional 16 hours. The lysates were assayed for firefly and Renilla luciferase activities using the Dual-Luciferase reporter assay system (Promega). Three independent experiments were carried out in triplicate. The firefly luciferase activity was normalized to the Renilla luciferase activity of the same sample, and the mean was calculated from the parallels. From the mean values of each independent run, the overall mean and its standard deviation (S.D.) were calculated.

[3] = test system: Stat5a/b; experiment: Clinical prostate cancers ex vivo in explant organ cultures: nuclear Stat5a/b immunohistochemistry; format: cell-based, human; conditions: 7 days, N6BAP 5, 10, 25, 50 and 100 μM; C5 100 m
Method: The specimens comprised de-identified excess tissue obtained after the completion of pathology diagnosis. A zero-sample prior to organ culture was formalin-fixed for each individual prostate cancer for the analysis of the nuclear Stat5a/b status. The prostate organ cultures were performed as described earlier (Ahonen et al., Endocrinology (2002), 143:228-238). Briefly, prostate cancer tissue was cut into approximately 1 mm^3 pieces in a plain culture medium and transferred onto lens papers lying on stainless steel grids in petri dishes. The medium was phenol-free medium 199 with Earle's salts (Sigma) containing dialyzed 5% fetal calf serum, G-penicillin (100 IU/ml), streptomycin sulfate ([…]), and glutamine (100 μg/ml). […] Tissue explants were cultured in a medium containing the N6BAP or control compound C5 at indicated concentrations (C5: […]; N6BAP: 5, 10, 25, 50 and 100 μM) 7 days, after which the explants were fixed in formalin and analyzed for Stat5a/b activation and viability of prostate cancer epithelial compartment. Viability of the epithelial cells in the prostate cancer explants at the end of the cultures were scored by counting the viable epithelial cells per explant.
Nuclear Stat5a/b indexes were determined by counting the Stat5-positive cells per 500 epithelial cells in the cultured explants in each treatment group.

[4] = test system: A549 human lung cancer cells; experiment: Cell viability assay, A549; format: cell-based
Method: (§1) CWR22Rv1 prostate cancer cells were treated with N6BAP or the control compound C5 (Ctrl) at 25 μM concentration or vehicle for 24 h. Following trypan blue exclusion, the attached viable vs. de-attached dead cells were counted. […] The bars indicate mean±SD of triplicate wells. In another assay, CWR22Rv1, LNCaP and DU145 cells were treated with N6BAP, the control compound C5 (Ctrl) or vehicle at indicated concentrations. The fraction of alive cells was determined by MTS ([…]) metabolic activity assay (CellTiter 96® AQueous Assay kit). The results are shown in FIGS. 9C, 9D and 9E, respectively.
(§2) The procedure of Example 9 was followed, substituting cells of the following solid tumor cell lines for the cells treated in Example 9: A549 human lung cancer cells, CAPAN human pancreatic cancer cells, T47D human breast cancer cells, […], A2058 human melanoma and COS-7 monkey fibroblast cell lines.

[5] = test system: cyclin D1; experiment: Expression of Stat5 target gene cyclin D1 in CWR22Rv1 and LNCaP cells (immunoblot); format: cell-based, human; conditions: 48 h or 25 μM over time
Method: Exponentially growing CWR22Rv1 and LNCaP cells were treated with N6BAP or the control compound C5 (Ctrl) for 48 h at concentrations indicated in FIG. 6 and whole cell lysates were immunoblotted with anti-cyclinD1 mAb. Exponentially growing CWR22Rv1 and LNCaP cells were treated with N6BAP or control compound C5 (Ctrl) at 25 μM for the periods of time indicated in FIG. 6, and whole cell lysates were immunoblotted with anti-cyclinD1 mAb or anti-Bcl-X1 pAb. Cell pellets were solubilized in lysis buffer [10 mM Tris-HCl (pH 7.6), 5 mM EDTA, 50 mM sodium chloride, 30 mM sodium pyrophosphate, 50 mM sodium fluoride, 1 mM sodium orthovanadate, 1% Triton X-100, 1 mM phenylmethylsulfonyl fluoride, 5 μg/ml aprotinin, 1 μg/ml pepstatin A, and […]], rotated end-over-end at 4° C. for 60 min, and insoluble material was pelleted at 12,000×g for 30 min at 4° C. The protein concentrations of clarified cell lysates were determined by simplified Bradford method (Bio-Rad Laboratories, Hercules, Calif.). The following primary antibodies were used for Western blotting, at the following concentrations: anti-β-actin pAb (1:4,000; Sigma), anti-cyclin D1 mAb (1:1000, BD Biosciences) and Bcl-xL pAb (1:1000, Cell Signaling, Danvers, Mass.).

[6] = test system: COS-7 (monkey kidney); experiment: Cell viability assay, COS-7; format: cell-based
Method: as §1, §2

SMILES: O=P(O)(O)OC[C@H]1O[C@@H](n2cnc3c(NCc4ccccc4)ncnc32)[C@H](O)[C@@H]1O [N6BAP, N^6-benzyladenosine-5′-monophosphate]
- nuclear Stat3 in xenograft tumors [1]: without affecting nuclear Stat3
- transcriptional activity of Stat5b on the β-casein gene promoter [2]: inhibited Stat5a and Stat5b transcriptional activity in a concentration-dependent manner; also recorded: effectively blocks the transcriptional activity
- nuclear Stat5 expression in explant organ cultures [3]: reduced the levels of nuclear Stat5 expression
- cell viability [4]: did not affect the viability
- expression of cyclin D1 [5]: down-regulates expression
- cell viability [6]: did not affect the viability
